Reference: PMC8813842 (Clinical Pharmacokinetics, 2021)
“Also recorded” adds a separate entry of the source.

Legend:
[1] = Population PK of allopurinol and oxypurinol in HIE neonates; format: in vivo, human; conditions: for Patients reaching the predefined AUC12 target: ALBINO study; for AUC: human, plasma, intravenous, 20 mg/kg; for Difference in CL between males and females: sex as covariate on CL; for Difference in CL between TH and non-TH patients: therapeutic hypothermia as categorical covariate on CL
xanthine oxidase (XO) = xanthine oxidase (XO) (Homo sapiens, UniProt P47989); conditions: in the first 24 h after birth
[2] = renal, URAT1 most important transporter; cited from earlier work

xanthine oxidase (XO), sequence (P47989 whole entry): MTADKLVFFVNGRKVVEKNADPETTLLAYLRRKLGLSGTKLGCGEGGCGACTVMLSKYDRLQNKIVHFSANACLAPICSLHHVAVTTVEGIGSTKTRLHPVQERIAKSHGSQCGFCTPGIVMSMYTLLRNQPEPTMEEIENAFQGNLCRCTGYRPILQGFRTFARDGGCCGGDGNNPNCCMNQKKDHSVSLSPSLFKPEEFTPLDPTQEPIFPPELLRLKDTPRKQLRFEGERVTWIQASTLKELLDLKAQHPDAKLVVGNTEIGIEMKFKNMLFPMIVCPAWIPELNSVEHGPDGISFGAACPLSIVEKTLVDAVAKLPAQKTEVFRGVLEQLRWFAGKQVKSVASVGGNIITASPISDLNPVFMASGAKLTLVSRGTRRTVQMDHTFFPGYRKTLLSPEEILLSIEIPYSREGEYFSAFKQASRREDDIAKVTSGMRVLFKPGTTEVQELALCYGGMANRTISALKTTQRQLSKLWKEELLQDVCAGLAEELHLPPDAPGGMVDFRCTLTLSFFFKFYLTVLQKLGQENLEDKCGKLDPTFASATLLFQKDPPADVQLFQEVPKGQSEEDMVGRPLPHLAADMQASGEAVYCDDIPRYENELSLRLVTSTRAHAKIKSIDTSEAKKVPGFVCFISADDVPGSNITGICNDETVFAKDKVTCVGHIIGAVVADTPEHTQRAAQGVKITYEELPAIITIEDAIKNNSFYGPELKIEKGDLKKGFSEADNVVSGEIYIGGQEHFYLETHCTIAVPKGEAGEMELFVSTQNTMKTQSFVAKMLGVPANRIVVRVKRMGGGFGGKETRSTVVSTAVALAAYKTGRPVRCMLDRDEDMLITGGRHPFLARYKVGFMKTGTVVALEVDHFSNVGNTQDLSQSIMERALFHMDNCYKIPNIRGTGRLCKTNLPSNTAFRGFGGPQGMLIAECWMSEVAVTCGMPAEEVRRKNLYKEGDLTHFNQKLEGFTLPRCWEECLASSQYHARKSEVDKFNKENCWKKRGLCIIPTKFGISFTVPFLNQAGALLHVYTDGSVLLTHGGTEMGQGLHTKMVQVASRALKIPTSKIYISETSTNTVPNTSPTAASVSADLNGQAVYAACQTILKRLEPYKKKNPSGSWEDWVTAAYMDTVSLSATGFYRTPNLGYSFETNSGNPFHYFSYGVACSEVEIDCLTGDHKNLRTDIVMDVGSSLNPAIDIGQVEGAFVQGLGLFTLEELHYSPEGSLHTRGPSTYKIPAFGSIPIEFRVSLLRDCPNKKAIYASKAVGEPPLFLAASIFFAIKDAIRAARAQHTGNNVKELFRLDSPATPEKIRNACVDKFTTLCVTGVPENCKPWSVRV

SMILES	Patients reaching the predefined AUC12 target ([1]; TH group) [%]	Patients reaching the predefined AUC12 target ([1]; non-TH group)	AUC [1] [ng·h/mL]	Difference in CL between males and females [1]	Difference in CL between TH and non-TH patients [1]	Decrease of estimated allopurinol CL due to autoinhibition (xanthine oxidase (XO)) [%]	Glomerular filtered oxypurinol actively reabsorbed [2]
Oc1ncnc2[nH]ncc12 [allopurinol]	92	all patients reached the targets	160000 ± 62600	No significant difference	No difference; also recorded: no significant differences; also recorded: not significantly different; also recorded: Clearances of allopurinol and oxypurinol were not significantly different between TH and non-TH patients	70	–
O=c1[nH]c(=O)c2c[nH]nc2[nH]1 [oxypurinol]	61	all patients reached the targets	37400 ± 12800	No significant difference	No difference; also recorded: no significant differences; also recorded: not significantly different; also recorded: Clearances of allopurinol and oxypurinol were not significantly different between TH and non-TH patients	–	approximately 80%
